Experimental data from PubChem BioAssay AID248 (DTP/NCI, 2004).
Where “and” joins values, the source holds several entries; their conditions need not be identical. Identical values can stand only once. Toxic doses and inconclusive results are not listed. No stated cut-off is given here; in the data, active means T/C of 150% or more; inactive means T/C below 125%.

System: L1210 leukemia ip in BDF1 mice, survival T/C
Test: NCI In Vivo Anticancer Drug Screen. Data for tumor model L1210 Leukemia (intraperitoneal) in B6D2F1 (BDF1) mice
Details: endpoint: mean survival time, higher = longer survival
Method in brief: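 Transplanted-tumor mice were given test agent; controls received vehicle only. Survival readings from the two groups were divided (treated over control).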

[1] = dose: 100.0 mg/kg/injection, schedule: Q04DX002 (ip), vehicle: saline
[2] = dose: 200.0 mg/kg/injection, schedule: Q04DX002 (ip), vehicle: saline
[3] = dose: 400.0 mg/kg/injection, schedule: Q04DX002 (ip), vehicle: saline
[4] = dose: 100.0 mg/kg/injection, schedule: Q01DX001 (ip), vehicle: saline
[5] = dose: 50.0 mg/kg/injection, schedule: Q01DX001 (ip), vehicle: saline
[6] = dose: 200.0 mg/kg/injection, schedule: Q01DX001 (ip), vehicle: saline
[7] = dose: 100.0 mg/kg/injection, schedule: Q04DX003 (ip), vehicle: Klucel (hydroxypropylcellulose) (HPC)
[8] = dose: 200.0 mg/kg/injection, schedule: Q04DX003 (ip), vehicle: Klucel (hydroxypropylcellulose) (HPC)
[9] = dose: 400.0 mg/kg/injection, schedule: Q01DX001 (ip), vehicle: saline
[10] = dose: 400.0 mg/kg/injection, schedule: Q04DX003 (ip), vehicle: Klucel (hydroxypropylcellulose) (HPC)
[11] = dose: 100.0 mg/kg/injection, schedule: Q01DX001 (ip), vehicle: Klucel (hydroxypropylcellulose) (HPC)
[12] = dose: 200.0 mg/kg/injection, schedule: Q01DX001 (ip), vehicle: Klucel (hydroxypropylcellulose) (HPC)
[13] = dose: 100.0 mg/kg/injection, schedule: Q01DX001 (ip), vehicle: carboxymethylcellulose (CMC)
[14] = dose: 200.0 mg/kg/injection, schedule: Q01DX001 (ip), vehicle: carboxymethylcellulose (CMC)
[15] = dose: 400.0 mg/kg/injection, schedule: Q01DX001 (ip), vehicle: carboxymethylcellulose (CMC)

Measured: T/C

C1=Cc2ccccc2C(c2ccccc2)S1 (configuration not stated)
inactive: [1] 103 % of control | [2] 98 % of control | [3] 103 % of control

On1ccc(N2CCOCC2)cc1=Nc1ccccc1
inactive: [4] 96 % of control

CCCOc1cccc(N)c1
inactive: [5] 96 % of control | [4] 91 % of control | [6] 93 % of control

O=C1CC(OC(=O)c2ccccc2)(c2ccccc2)OC(c2ccccc2)=C1c1ccccc1 (configuration not stated)
inactive: [4] 101 % of control | [7] 97 % of control | [6] 104 % of control | [8] 100 % of control | [9] 96 % of control | [10] 100 % of control

O=C(NC(CSC1CCCCO1)C(=O)O)OCc1ccccc1 (configuration not stated) (tested in a mixture with another compound)
inactive: [5] 106 % of control | [4] 101 % of control | [6] 97 % of control

Cc1cnc2no[n+]([O-])c2c1
inactive: [7] 101 % of control | [8] 102 % of control

CCC1=C(C)C(=O)C2CCCCC2C1=O (configuration not stated)
inactive: [11] 105 % of control | dose: 100.0 mg/kg/injection, schedule: Q01DX009 (ip), vehicle: saline sonified 95 % of control | [12] 111 % of control | dose: 200.0 mg/kg/injection, schedule: Q01DX009 (ip), vehicle: saline sonified 97 % of control | dose: 400.0 mg/kg/injection, schedule: Q01DX001 (ip), vehicle: Klucel (hydroxypropylcellulose) (HPC) 96 % of control | dose: 400.0 mg/kg/injection, schedule: Q01DX009 (ip), vehicle: saline sonified 92 % of control

CN=C(NO)c1ccccc1
inactive: [11] 107 % of control | [12] 98 % of control

CS(=O)(=O)Oc1nn2c(OS(C)(=O)=O)nnc2s1
inactive: dose: 5.0 mg/kg/injection, schedule: Q01DX001 (ip), vehicle: saline 104 % of control | dose: 8.8 mg/kg/injection, schedule: Q01DX001 (ip), vehicle: saline 101 % of control and 90 % of control | dose: 10.0 mg/kg/injection, schedule: Q01DX001 (ip), vehicle: saline 109 % of control | dose: 13.3 mg/kg/injection, schedule: Q01DX001 (ip), vehicle: saline 98 % of control and 110 % of control | dose: 20.0 mg/kg/injection, schedule: Q01DX001 (ip), vehicle: saline 98 % of control and 104 % of control | dose: 30.0 mg/kg/injection, schedule: Q01DX001 (ip), vehicle: saline 104 % of control

O=C1c2ccccc2S(=O)(=O)N1CCN1C(=O)c2ccccc2S1(=O)=O
inactive: [7] 94 % of control | [8] 93 % of control | [10] 94 % of control

CNc1ccccc1C(=O)N/N=C/c1ccc(OC)cc1
inactive: [1] 102 % of control | [2] 99 % of control | [3] 102 % of control

CN(C)CCCN1CCC2(CCC(CO)CC2)CC1
inactive: [4] 94 % of control | [6] 94 % of control | [9] 102 % of control

COc1cc(/C=C\C(=O)c2cccc([N+](=O)[O-])c2)cc(OC)c1OC
inactive: dose: 100.0 mg/kg/injection, schedule: Q04DX002 (ip), vehicle: Klucel (hydroxypropylcellulose) (HPC) 96 % of control | dose: 200.0 mg/kg/injection, schedule: Q04DX002 (ip), vehicle: Klucel (hydroxypropylcellulose) (HPC) 89 % of control | dose: 400.0 mg/kg/injection, schedule: Q04DX002 (ip), vehicle: Klucel (hydroxypropylcellulose) (HPC) 100 % of control

N#CCCn1cnc2c(N)ncnc21
inactive: dose: 100.0 mg/kg/injection, schedule: Q01DX009 (ip), vehicle: saline with Tween-80 96 % of control | dose: 100.0 mg/kg/injection, schedule: Q04DX003 (ip), vehicle: saline with Tween-80 103 % of control | dose: 200.0 mg/kg/injection, schedule: Q01DX009 (ip), vehicle: saline with Tween-80 96 % of control | dose: 200.0 mg/kg/injection, schedule: Q04DX003 (ip), vehicle: saline with Tween-80 103 % of control | dose: 400.0 mg/kg/injection, schedule: Q01DX009 (ip), vehicle: saline with Tween-80 91 % of control | dose: 400.0 mg/kg/injection, schedule: Q04DX003 (ip), vehicle: saline with Tween-80 104 % of control

Cc1ccc(C(C)C)c(O)c1C(=O)O
inactive: [11] 96 % of control | [12] 104 % of control

NCCCCCCNC(=O)CCC(=O)NCCCCCCN
inactive: dose: 8.0 mg/kg/injection, schedule: Q01DX Z (ip), vehicle: water 86 % of control | dose: 16.0 mg/kg/injection, schedule: Q01DX Z (ip), vehicle: water 91 % of control | dose: 32.0 mg/kg/injection, schedule: Q01DX Z (ip), vehicle: water 88 % of control | dose: 64.0 mg/kg/injection, schedule: Q01DX Z (ip), vehicle: saline 109 % of control | dose: 64.0 mg/kg/injection, schedule: Q01DX Z (ip), vehicle: water 91 % of control | dose: 128.0 mg/kg/injection, schedule: Q01DX Z (ip), vehicle: saline 88 % of control

CN(NC(=O)CC(=O)NN(C)C(=S)c1ccccc1)C(=S)c1ccccc1
inactive: dose: 25.0 mg/kg/injection, schedule: Q01DX009 (ip), vehicle: gum acacia 109 % of control | dose: 50.0 mg/kg/injection, schedule: Q01DX009 (ip), vehicle: gum acacia 104 % of control | dose: 100.0 mg/kg/injection, schedule: Q01DX009 (ip), vehicle: gum acacia 100 % of control and 92 % of control | dose: 100.0 mg/kg/injection, schedule: Q04DX003 (ip), vehicle: gum acacia 90 % of control | dose: 200.0 mg/kg/injection, schedule: Q04DX003 (ip), vehicle: gum acacia 97 % of control | dose: 400.0 mg/kg/injection, schedule: Q04DX003 (ip), vehicle: gum acacia 92 % of control

CC12CCC(C1)C(C)(C)C2OC(=O)c1ccccc1C(=O)O (configuration not stated)
inactive: dose: 50.0 mg/kg/injection, schedule: Q01DX001 (ip), vehicle: carboxymethylcellulose (CMC) 103 % of control | [13] 113 % of control | [14] 102 % of control | [15] 103 % of control

[CH3][Sn]([CH3])([CH3])[Cl]
inactive: dose: 0.12 mg/kg/injection, schedule: Q04DX002 (ip), vehicle: saline 108 % of control | dose: 0.25 mg/kg/injection, schedule: Q04DX002 (ip), vehicle: saline 105 % of control | dose: 0.5 mg/kg/injection, schedule: Q04DX002 (ip), vehicle: saline 108 % of control

Brc1ccc(N=Nc2ccccc2)cc1
inactive: [7] 103 % of control | [8] 97 % of control | [10] 103 % of control

CCCCCCC(=O)N(CCCC)CCCC
inactive: [13] 109 % of control | dose: 100.0 mg/kg/injection, schedule: Q01DX009 (ip), vehicle: carboxymethylcellulose (CMC) 100 % of control and 91 % of control | dose: 100.0 mg/kg/injection, schedule: Q04DX003 (ip), vehicle: carboxymethylcellulose (CMC) 103 % of control | [14] 95 % of control | dose: 200.0 mg/kg/injection, schedule: Q01DX009 (ip), vehicle: carboxymethylcellulose (CMC) 96 % of control and 104 % of control | dose: 200.0 mg/kg/injection, schedule: Q04DX003 (ip), vehicle: carboxymethylcellulose (CMC) 94 % of control | [15] 98 % of control | dose: 400.0 mg/kg/injection, schedule: Q04DX003 (ip), vehicle: carboxymethylcellulose (CMC) 92 % of control
